The source of these data is patent publication US20260356840A1, “[1,2,4]TRIAZOLO[1,5-A]PYRIMIDINONE WRN INHIBITORS” (Nimbus Wadjet, Inc., priority 2023, published 2026).

Structures are written as SMILES.

T1 sequence (Q14191 517-1235 L1074F): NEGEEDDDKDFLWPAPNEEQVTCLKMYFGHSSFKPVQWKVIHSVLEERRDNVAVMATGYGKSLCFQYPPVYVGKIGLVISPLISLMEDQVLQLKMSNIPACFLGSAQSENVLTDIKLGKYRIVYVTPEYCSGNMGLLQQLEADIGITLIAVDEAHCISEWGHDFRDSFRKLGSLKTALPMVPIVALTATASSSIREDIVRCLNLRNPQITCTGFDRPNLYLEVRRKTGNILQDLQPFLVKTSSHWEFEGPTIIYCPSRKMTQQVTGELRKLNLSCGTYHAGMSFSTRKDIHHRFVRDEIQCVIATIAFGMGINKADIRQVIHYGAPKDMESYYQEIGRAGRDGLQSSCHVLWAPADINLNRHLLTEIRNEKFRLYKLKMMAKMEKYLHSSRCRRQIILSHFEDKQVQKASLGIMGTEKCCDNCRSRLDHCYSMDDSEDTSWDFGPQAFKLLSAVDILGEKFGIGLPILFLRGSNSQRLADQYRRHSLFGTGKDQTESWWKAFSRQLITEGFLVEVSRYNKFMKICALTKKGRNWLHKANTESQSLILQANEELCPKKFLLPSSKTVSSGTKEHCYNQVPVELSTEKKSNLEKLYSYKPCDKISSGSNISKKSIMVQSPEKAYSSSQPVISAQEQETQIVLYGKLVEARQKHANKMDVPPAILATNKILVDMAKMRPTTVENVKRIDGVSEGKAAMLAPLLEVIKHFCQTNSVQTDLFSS

The assay concerns the target T1, human Werner helicase (Uniprot Q14191, amino acids 517-1235 with L1074F point mutation), WRN-BV08 (Homo sapiens, UniProt Q14191, L1074F).
T1 construct: Uniprot Q14191, amino acids 517-1235 with L1074F point mutation; TEV cleavable 8xHis tag (C, cleaved yes); made in house; host or cells: Sf9 insect cells (baculovirus, pFastBac)
Kind of assay: WRN (BV08) ADP-Glo Assay. It counts as biochemical. On the procedure: DNA duplex was synthesized at BGI (Shenzhen, China) and was composed of strand 1 with the sequence 5′-[…]-3′ (SEQ ID NO.: 1) and strand 2 with the sequence 5′-[…]-3′ (SEQ ID NO.: 2). DNA strands were annealed by heating to 95 °C for 5 minutes followed by slow cooling to room temperature. […] DMSO (0.1 μl) was added to columns 12, rows A-H and column 24, rows I-P for the maximum signal control.
Where RLU=relative luminescence units, sample=signal in sample well, and MIN and MAX are the respective minimum and maximum signal controls. • Four-parameter IC50 fit equation:
Y=Bottom+(Top−Bottom)/(1+(IC50/X)^Hill Slope)
Where top and bottom are normally allowed to float but may be fixed at 100 or 0 respectively in a 3-parameter fit. Y is the % inhibition and X is the compound concentration.
Molecular Biology and virus production. […] The baculovirus from the expression plasmid WRN-BV08 was generated from transfection and amplification following the manufacturer's instructions.
Sf9 cells grown in SF900II media were infected with 1:200 WRN-BV08 P2 virus and incubated for protein expression for 72 h at 27 °C. The WRN protein was purified using the following protocol. The cell pellets were thawed and resuspended in buffer A (50 mM Tris, pH 7.5, 500 mM NaCl, 1 mM TCEP, 10% Glycerol) supplemented with 0.5% CHAPS, 1 mM [COMPOUND LEFT OUT], 1 μg/ml Leupeptin, 1 μg/ml Pepstatin, and the Pierce Universal Nuclease and cocktail tablet. Cleared lysates were loaded onto a Ni Sepharose™ excel column and washed with buffer A and bound protein was eluted with buffer A supplemented with 300 mM imidazole. The eluted protein was dialyzed against buffer A and digested by His-tagged TEV (1:5 ratio) overnight at 4 °C. […] Untagged WRN protein was eluted from the column with buffer A supplemented with 20 mM imidazole, dialyzed overnight into buffer B (50 mM Tris, pH 7.5, 1 mM TCEP, 10% Glycerol) supplemented with 150 mM NaCl and loaded onto a Heparin column. Proteins were eluted with a step gradient of buffer B supplemented with 150 mM, 200 mM, 300 mM and 500 mM NaCl.
The IC50 is the concentration at which inhibition is half-maximal. Lower therefore signals greater potency in that assay. `CCc1c(N2CCN(C(=O)c3nn(C)cc3O)CC2)c(=O)n2nc(C3CC3)nc2n1CC(=O)Nc1ccc(C(F)(F)F)cc1Cl` [Compound I-36, N-[2-chloro-4-(trifluoromethyl)phenyl]-2-{2-cyclopropyl-5-ethyl-6-[4-(4-hydroxy-1-methyl-1H-pyrazole-3-carbonyl)piperazin-1-yl]-7-oxo-4H,7H-[1,2,4]triazolo[1,5-a]pyrimidin-4-yl}acetamide] showed an IC50 of 100 to 500 nM.

For the compound `CCc1c(N2CCN(C(=O)c3ccnc4cccnc34)CC2)c(=O)n2nc(C3=CCOCC3)nc2n1CC(=O)Nc1ccc(C(F)(F)F)cc1Cl` [Compound I-37, N-[2-chloro-4-(trifluoromethyl)phenyl]-2-[2-(3,6-dihydro-2H-pyran-4-yl)-5-ethyl-6-[4-(1,5-naphthyridine-4-carbonyl)piperazin-1-yl]-7-oxo-4H,7H-[1,2,4]triazolo[1,5-a]pyrimidin-4-yl]acetamide], the IC50 is 5 to 50 nM.

For `CCc1c(N2CCN(C(=O)c3cn[nH]n3)CC2)c(=O)n2nc(C3=CCOCC3)nc2n1CC(=O)Nc1ccc(C(F)(F)F)cc1Cl` [Compound I-38, N-[2-chloro-4-(trifluoromethyl)phenyl]-2-[2-(3,6-dihydro-2H-pyran-4-yl)-5-ethyl-7-oxo-6-[4-(2H-1,2,3-triazole-4-carbonyl)piperazin-1-yl]-4H,7H-[1,2,4]triazolo[1,5-a]pyrimidin-4-yl]acetamide], the concentration for half-maximal inhibition (IC50) is below 5 nM.

The compound `CCc1c(N2CCN(C(=O)[C@H]3C[C@@H](O)C3)CC2)c(=O)n2nc(C3=CCOCC3)nc2n1CC(=O)Nc1ccc(C(F)(F)F)cc1Cl` [Compound I-39, N-[2-chloro-4-(trifluoromethyl)phenyl]-2-[2-(3,6-dihydro-2H-pyran-4-yl)-5-ethyl-7-oxo-6-{4-[(1s,3s)-3-hydroxycyclobutanecarbonyl]piperazin-1-yl}-4H,7H-[1,2,4]triazolo[1,5-a]pyrimidin-4-yl]acetamide] had an IC50 of 5 to 50 nM.

For the compound `CCc1c(N2CCN(C(=O)CC(C)(C)O)CC2)c(=O)n2nc(C3=CCOCC3)nc2n1CC(=O)Nc1ccc(C(F)(F)F)cc1Cl` [Compound I-40, N-[2-chloro-4-(trifluoromethyl)phenyl]-2-[2-(3,6-dihydro-2H-pyran-4-yl)-5-ethyl-6-[4-(3-hydroxy-3-methylbutanoyl)piperazin-1-yl]-7-oxo-4H,7H-[1,2,4]triazolo[1,5-a]pyrimidin-4-yl]acetamide], the IC50 was in the range of 50 to 100 nM.

In the case of `CCc1c(N2CCN(C(=O)c3nnc(C)s3)CC2)c(=O)n2nc(C3=CCOCC3)nc2n1CC(=O)Nc1ccc(C(F)(F)F)cc1Cl` [Compound I-41, N-[2-chloro-4-(trifluoromethyl)phenyl]-2-[2-(3,6-dihydro-2H-pyran-4-yl)-5-ethyl-6-[4-(5-methyl-1,3,4-thiadiazole-2-carbonyl)piperazin-1-yl]-7-oxo-4H,7H-[1,2,4]triazolo[1,5-a]pyrimidin-4-yl]acetamide], the half-maximal inhibitory concentration (IC50) was in the range of 5 to 50 nM.

On to `CCc1c(N2CCN(C(=O)c3ncnc(C)c3O)CC2)c(=O)n2nc(-c3cnc(OC)c(C)c3)nc2n1CC(=O)Nc1ccc(C(F)(F)F)cc1Cl` [Compound I-42, N-[2-chloro-4-(trifluoromethyl)phenyl]-2-{5-ethyl-6-[4-(5-hydroxy-6-methylpyrimidine-4-carbonyl)piperazin-1-yl]-2-(6-methoxy-5-methylpyridin-3-yl)-7-oxo-4H,7H-[1,2,4]triazolo[1,5-a]pyrimidin-4-yl}acetamide], for which the IC50 was 5 to 50 nM.

As for `CCc1c(N2CCN(C(=O)c3ncnc(C)c3O)CC2)c(=O)n2nc(-c3cc(C)nc(OC)c3)nc2n1CC(=O)Nc1ccc(C(F)(F)F)cc1Cl` [Compound I-43, N-[2-chloro-4-(trifluoromethyl)phenyl]-2-{5-ethyl-6-[4-(5-hydroxy-6-methylpyrimidine-4-carbonyl)piperazin-1-yl]-2-(2-methoxy-6-methylpyridin-4-yl)-7-oxo-4H,7H-[1,2,4]triazolo[1,5-a]pyrimidin-4-yl}acetamide], the half-maximal inhibitory concentration (IC50) lay in the range of 5 to 50 nM.

`CCc1c(N2CCN(C(=O)c3ncnc(C)c3O)CC2)c(=O)n2nc(-c3ccnc(OC(F)F)c3)nc2n1CC(=O)Nc1ccc(C(F)(F)F)cc1Cl` [Compound I-44, N-[2-chloro-4-(trifluoromethyl)phenyl]-2-{2-[2-(difluoromethoxy)pyridin-4-yl]-5-ethyl-6-[4-(5-hydroxy-6-methylpyrimidine-4-carbonyl)piperazin-1-yl]-7-oxo-4H,7H-[1,2,4]triazolo[1,5-a]pyrimidin-4-yl}acetamide]: the concentration for half-maximal inhibition (IC50) was in the range of 5 to 50 nM.

As for `CCc1c(N2CCN(C(=O)c3ncnc(C)c3O)CC2)c(=O)n2nc(-c3ccnc(OC)c3F)nc2n1CC(=O)Nc1ccc(C(F)(F)F)cc1Cl` [Compound I-45, N-[2-chloro-4-(trifluoromethyl)phenyl]-2-[5-ethyl-2-(3-fluoro-2-methoxypyridin-4-yl)-6-[4-(5-hydroxy-6-methylpyrimidine-4-carbonyl)piperazin-1-yl]-7-oxo-4H,7H-[1,2,4]triazolo[1,5-a]pyrimidin-4-yl]acetamide], the IC50 was 5 to 50 nM.

The compound `CCc1c(N2CCN(C(C)=O)CC2)c(=O)n2nc(-c3ccnc(OC)c3)nc2n1CC(=O)Nc1ccc(C(F)(F)F)cc1Cl` [Compound I-46, 2-[6-(4-acetylpiperazin-1-yl)-5-ethyl-2-(2-methoxypyridin-4-yl)-7-oxo-4H,7H-[1,2,4]triazolo[1,5-a]pyrimidin-4-yl]-N-[2-chloro-4-(trifluoromethyl)phenyl]acetamide] registered an IC50 of 5 to 50 nM.

`CCc1c(N2CCN(C(=O)C(F)(F)F)CC2)c(=O)n2nc(-c3ccnc(OC)c3)nc2n1CC(=O)Nc1ccc(C(F)(F)F)cc1Cl` [Compound I-47, N-[2-chloro-4-(trifluoromethyl)phenyl]-2-[5-ethyl-2-(2-methoxypyridin-4-yl)-7-oxo-6-[4-(2,2,2-trifluoroacetyl)piperazin-1-yl]-4H,7H-[1,2,4]triazolo[1,5-a]pyrimidin-4-yl]acetamide] had an IC50 of 50 to 100 nM.

`CCc1c(N2CCN(C(=O)c3cnn(C)c3)CC2)c(=O)n2nc(-c3ccnc(OC)c3)nc2n1CC(=O)Nc1ccc(C(F)(F)F)cc1Cl` [Compound I-48, N-[2-chloro-4-(trifluoromethyl)phenyl]-2-[5-ethyl-2-(2-methoxypyridin-4-yl)-6-[4-(1-methyl-1H-pyrazole-4-carbonyl)piperazin-1-yl]-7-oxo-4H,7H-[1,2,4]triazolo[1,5-a]pyrimidin-4-yl]acetamide] came in with a concentration for half-maximal inhibition (IC50) below 5 nM.

In turn, `CCc1c(N2CCN(C(=O)c3cnn(C)c3C)CC2)c(=O)n2nc(-c3ccnc(OC)c3)nc2n1CC(=O)Nc1ccc(C(F)(F)F)cc1Cl` [Compound I-49, N-[2-chloro-4-(trifluoromethyl)phenyl]-2-{6-[4-(1,5-dimethyl-1H-pyrazole-4-carbonyl)piperazin-1-yl]-5-ethyl-2-(2-methoxypyridin-4-yl)-7-oxo-4H,7H-[1,2,4]triazolo[1,5-a]pyrimidin-4-yl}acetamide] yielded an IC50 of 5 to 50 nM.

Consider `CCc1c(N2CCN(C(=O)c3c(C)nn(C)c3C)CC2)c(=O)n2nc(-c3ccnc(OC)c3)nc2n1CC(=O)Nc1ccc(C(F)(F)F)cc1Cl` [Compound I-50, N-[2-chloro-4-(trifluoromethyl)phenyl]-2-[5-ethyl-2-(2-methoxypyridin-4-yl)-7-oxo-6-[4-(1,3,5-trimethyl-1H-pyrazole-4-carbonyl)piperazin-1-yl]-4H,7H-[1,2,4]triazolo[1,5-a]pyrimidin-4-yl]acetamide], for which the IC50 was in the range of 5 to 50 nM.

On to `CCc1c(N2CCN(C(=O)c3cnn(C)c3)CC2)c(=O)n2nc(-c3cnc(OC)nc3)nc2n1CC(=O)Nc1ccc(C(F)(F)F)cc1Cl` [Compound I-51, N-[2-chloro-4-(trifluoromethyl)phenyl]-2-[5-ethyl-2-(2-methoxypyrimidin-5-yl)-6-[4-(1-methyl-1H-pyrazole-4-carbonyl)piperazin-1-yl]-7-oxo-4H,7H-[1,2,4]triazolo[1,5-a]pyrimidin-4-yl]acetamide], for which the IC50 fell in the range of 5 to 50 nM.

In turn, `CCc1c(N2CCN(C(=O)c3cnn(C)c3)CC2)c(=O)n2nc(-c3ccnc(OC4CC4)c3)nc2n1CC(=O)Nc1ccc(C(F)(F)F)cc1Cl` [Compound I-52, N-[2-chloro-4-(trifluoromethyl)phenyl]-2-[2-(2-cyclopropoxypyridin-4-yl)-5-ethyl-6-[4-(1-methyl-1H-pyrazole-4-carbonyl)piperazin-1-yl]-7-oxo-4H,7H-[1,2,4]triazolo[1,5-a]pyrimidin-4-yl]acetamide] came in with a half-maximal inhibitory concentration (IC50) of 5 to 50 nM.
